In patent US20260364186A1, “Chemical Conjugates, Compositions, and Methods of Preparation and Use Thereof” (Transfection Holdings Limited, priority 2022, published 2026):
“Also recorded” adds a separate entry of the source.

Assays:
Type in all cases: cell-based, human
[1] = test system: NZM11 (BRAF V600E) melanoma cells; experiment: FACS uptake of BODIPY FL conjugates, 200 nM, 5 min (Example 2)
Protocol: (§1) FIG. 2. Conjugate compounds coupled to BODIPY FL were tested for uptake using 200 nM each conjugate and 5 minute incubation with melanoma cell line NZM11 (BRAF V600E mutant metastatic melanoma), melanoma cell line NZM40 (NRAS Q16H mutant metastatic melanoma) and melanoma cell line NZM9 (BRAF and NRAS wildtype metastatic melanoma). Mean fluorescent intensities (MFI). 2,000 cells (NZM11), 1,000 cells (NZM40) and 500-1,000 cells (NZM9). Cells were sorted by FACS. Bars represent mean±SD. Results were from a single experiment done in triplicate.
Materials and methods: NZM11 is an adherent metastatic melanoma cell which was originally derived from a patient with a subcutaneous lesion on their mid back. This human metastatic melanoma is identified with code CBA-1398 from Cell Bank Australia. […] BRAF is a gene that makes a protein called B-Raf. The gene is involved in sending signals within cells that direct the cell's growth. Around 50% of melanomas bear activating BRAF mutations. In this family of mutations, V600E is the most common, which is a single mutation on codon 600. BRAF mutation is also most common in patients whose tumours arise on skin without chronic sun-induced damage. See Ascierto et al., 2012.
For screening, NZM11, NZM40 and NZM9 cells were suspended at […] dispensed into 96 well plates and left to settle for 48 hours. Then, 10 μL of 10 mM stock solutions in DMSO for the conjugates were diluted with HBSS to afford 400 nM solution. Next, 400 nM compounds and DMSO solutions were diluted 1:1 with MEMα media to afford 200 nM solutions. After 48 hours the media was removed from the 96 well plates and 200 μL of 200 nM conjugates solutions dispensed to each well (in triplicate) and incubated for 5 minutes at 37 °C. After 5 minutes, the media was removed and cells washed with PBS. […] The FACS results output were represented as the mean of the fluorescence intensities (in arbitrary units) measured for cells sorted in every sample.

[2] = test system: NZM40 (NRAS Q16H) melanoma cells; experiment: as above
Protocol: as §1
NZM40 is an adherent cell line which was originally derived from a metastatic melanoma from a patient, in 2004. This human metastatic melanoma is identified with code CBA-1381 from Cell bank Australia. […] Ras is a superfamily of proteins implicated in cell growth, survival and differentiation. NRAS (neuroblastoma rat sarcoma) was the first oncogene recognized in melanoma and mutations in NRAS account for 20% of all melanomas. NRAS mutations primarily occur at position 61 and involve amino acid change from glutamine (Q) to arginine (R), lysine (K), leucine (L) or histidine (H). These mutations block NRAS into a GTP-bound state damaging its GTPase activity (FIG. 1). Patients are usually older (>55 years) with previous UV exposure. See Garcia-Alverez et al., 2021.
For screening, NZM11, NZM40 and NZM9 cells were suspended at […] dispensed into 96 well plates and left to settle for 48 hours. Then, 10 μL of 10 mM stock solutions in DMSO for the conjugates were diluted with HBSS to afford 400 nM solution. Next, 400 nM compounds and DMSO solutions were diluted 1:1 with MEMα media to afford 200 nM solutions. After 48 hours the media was removed from the 96 well plates and 200 μL of 200 nM conjugates solutions dispensed to each well (in triplicate) and incubated for 5 minutes at 37 °C. After 5 minutes, the media was removed and cells washed with PBS. Then, 100 μL of TrypLE trypsin (ThermoFisher Scientific) were added to each well and incubated for 5 minutes at 37 °C after which, 100 μL of MEMα media were added and samples were sorted through FACS biosort. The FACS results output were represented as the mean of the fluorescence intensities (in arbitrary units) measured for cells sorted in every sample.

[3] = test system: Jurkat cells; experiment: FACS uptake of BODIPY FL conjugates in Jurkat cells (Example 3); details: 200 nM
Protocol: FIG. 3B: Conjugate compounds coupled to BODIPY FL were tested for uptake using 200 nM each conjugate and 5 minute incubation with immortalized T lymphocyte cell line, Jurkat cells. Mean fluorescent intensities (MFI). 1,000 cells sorted by FACS. Bars represent mean±SD. Results represent a single experiment done in duplicate.
Materials and methods: Jurkat cells have been previously shown to be defective in the expression of two lipid phosphatases, PTEN (phosphatase and tensin homologue) and SHIP (SH2-domain-containing inositol polyphosphate 5′ phosphatase). The biological implications of SHIP deficiency in T cells remain under evaluation, but the loss of PTEN leads to activation of the phosphatidylinositol 3-kinase (PI3K)-signalling pathway. See Abraham and Weiss, 2004. This activation of PI3K protein is also on NZM40 melanoma cell line, and represents a key mutation for its sustained proliferation. See Silva et al., 2017. For these experiments, Jurkat cells were diluted on RPMI media (supplemented with 10% FBS+1% penicillin-streptomycin) to afford 400 cells/μL. 2 μL of 100 μM stock solutions in DMSO from 138 and pantothenic acid/pantothenic acid derivatives coupled to BODIPY were diluted with 998 μL of RPMI media (supplemented with 10% FBS+1% penicillin-streptomycin) to afford 200 nM solution. 100,000 cells were dispensed to Eppendorf tubes, centrifuged for 1.5 min at 5000 rcf and the supernatant was removed. The cells then were incubated with 500 μL of solutions at 200 nM for 4.5 min and 37 °C. After the incubation time, cells were centrifuged for 1.5 minutes at 5000 rcf. Supernatant was removed and cell pellet re-suspended in 200 μL fresh RPMI media, transferred to 96 well-plate and run on FACS machine, approximately 1,000 cells analysed.

[4] = test system: NZM11 (BRAF V600E) melanoma cells; experiment: Time course of uptake by FACS (Example 5); details: 200 nM; for uptake / intensities, in words: NZM11, time course
Protocol: FIG. 5A: Time course of uptake for 124, 125, 131, 132 conjugate compounds. Tests were performed using 200 nM each conjugate and 5, 30, or 60 minute incubation with melanoma cell line NZM11 (BRAF V600E mutant metastatic melanoma). Mean fluorescent intensities (MFI), n=300 mean±SD. The cells were sorted by FACS.
FIG. 5B: Time course of uptake for 124 and 3-azido BODIPY FL. Tests were performed using 200 nM each compound and 1 or 3 hour incubation with melanoma cell line NZM11 (BRAF V600E mutant metastatic melanoma). Mean fluorescent intensities (MFI). n=2000-3000 mean±SD. The cells were sorted by FACS.
Materials and methods: NZM11 cells were suspended at […] dispensed into 96 well plates and left to settle for 48 hours. 10 μL of 10 mM stock solutions in DMSO from the conjugates coupled to BODIPY were diluted with HBSS to afford 400 nM solution. Then, 400 nM compounds and DMSO solutions were diluted 1:1 with MEMα media to afford 200 nM solutions. After 48 hours the media was removed from the 96 well plates and 200 μL of 200 nM conjugates solutions dispensed to each well (in duplicate) and incubated for 5 minutes, 30 minutes and 60 minutes at 37 °C (for the first test) or 60 minutes and 3 hours (for the second test). After indicated incubation time, the media was removed and cells washed with PBS. 100 μL of TrypLE trypsin (ThermoFisher Scientific) were added to each well and incubated for 6.5 minutes at 37 °C after which, 100 μL of MEMα media were added and samples were sorted through FACS biosort. FACS results output represented the mean of the fluorescence intensities (in arbitrary units) measured for cells sorted in every sample. Uptake rate was calculated by the equation: Uptake rate=(MFI2−MFI1)/(T2−T1)
whereby: MFI=mean fluorescent intensities; T=time (at which time the sample was taken); Uptake rate units: fluorescence intensities units per minute.

CC1=CC(C)=[N+]2C1=Cc1ccc(CCCn3cc(CCNC(=O)/C=C/NC(=O)[C@H](O)C(C)(C)CO)nn3)n1[B-]2(F)F [Compound 124]
higher fluorescence intensities compared to enantiomer 126 [1]: 15 fold | uptake (fluorescence intensities) [1]: highest intensities; also recorded: best targeting activity | higher fluorescence intensities compared to enantiomer 126 [2]: 13 times | uptake (fluorescence intensities) [2]: highest intensities; also recorded: best targeting activity | uptake / targeting [3]: highest uptake | intensities compared to 125 and 127 ([3]; vs 125 and 127): two times higher | lower intensities at 3 hour than 60 minute incubation ([4]; NZM11): 4% | time after which uptake presents saturation ([4]; NZM11): 60 min | time at which highest intensities were reached ([4]; NZM11): 60 min | uptake / intensities, in words [4]: outstanding uptake; also recorded: rapid at the first minutes of incubation | uptake rate ([4]; after five minutes): 45 units per minute | uptake rate ([4]; at 30 minutes): 23 units per minute | uptake rate ([4]; at 60 minutes): 1 units per minute

CC1=CC(C)=[N+]2C1=Cc1ccc(CCCn3cc(CCNC(=O)/C=C/NC(=O)[C@@H]4OC(C)(C)OCC4(C)C)nn3)n1[B-]2(F)F [Compound 125, (R,E)-N-((((3-[4,4-difluoro-5,7-dimethyl-4-bora-3a,4a-diaza-s-indacene-3-yl]propyl)-1H-1,2,3-triazol-4-yl)eth-ylamino)-3-oxoprop-1-enyl)-2,2,5,5-tetramethyl-1,3-dioxane-4-carboxamide]
uptake (fluorescence intensities) [1]: selective uptake; also recorded: significant uptake | uptake (fluorescence intensities) [2]: selective uptake; also recorded: significant uptake | uptake / targeting [3]: showed targeting | time at which highest intensities were reached ([4]; NZM11): 60 min | times lower uptake rate, as compared to 124 ([4]; NZM11): 7 times

CC1=CC(C)=[N+]2C1=Cc1ccc(CCCn3cc(CCNC(=O)/C=C\NC(=O)[C@H]4OC(C)(C)OCC4(C)C)nn3)n1[B-]2(F)F [Compound 131, (Z)—N-((((3-[4,4-Difluoro-5,7-dimethyl-4-bora-3a,4a-diaza-s-indacene-3-yl]propyl)-1H-1,2,3-triazol-4-yl)ethylamino)-3-oxoprop-1-enyl)-2,2,5,5-tetramethyl-1,3-dioxane-4-carboxamide]
uptake (fluorescence intensities) [2]: showed selectivity | uptake / targeting [3]: showed targeting | uptake / intensities, in words [4]: non-significant intensities
